The source of these data is patent publication US20250313604A1, “PEPTIDE PHARMACEUTICALS FOR INSULIN RESISTANCE” (Mederis Diabetes LLC, priority 2014, published 2025).

For data set [1] the following is noted: in water; cited from earlier work.
A further data set concerns db/db mice. Nature of the data set: In vivo assay in db/db mice (blood glucose, body weight, food consumption).
[2] abbreviates: high dose (300 nmoles/kg) s.c., Days 2 and 3.

As to `CCCCCCCCCCCCCCO[C@@H]1O[C@H](CO)[C@@H](O[C@@H]2O[C@@H](CO)[C@H](O)[C@@H](O)[C@@H]2O)[C@H](O)[C@H]1O` (stereo in doubt) [Tetradecyl maltoside], the CMC in data set [1] is reported as 0.01 mM.
Take `CCCCCCCCCCCCCO[C@@H]1O[C@H](CO)[C@@H](OC2OC(CO)C(O)C(O)C2O)[C@H](O)[C@H]1O` (stereo in doubt) [Tridecyl maltoside]: the CMC in data set [1] is given as 0.03 mM.
On to `CCCCCCCCCCO[C@@H]1O[C@H](CO)[C@@H](O[C@H]2O[C@H](CO)[C@@H](O)[C@H](O)[C@H]2O)[C@H](O)[C@H]1O` [Decyl maltoside], for which, in data set [1], the CMC is given as 1.8 mM.
Take `CCCCCCCCCCCCO[C@@H]1O[C@H](CO)[C@@H](O[C@H]2O[C@H](CO)[C@@H](O)[C@H](O)[C@H]2O)[C@H](O)[C@H]1O` [Dodecyl-β-D-maltoside]: the CMC in data set [1] was 0.17 mM.
As to `CCCCCCCCO[C@@H]1O[C@H](C(=O)NCCCC[C@H](NC(=O)[C@@H](NC(=O)[C@H](Cc2ccccc2)NC(=O)[C@H](CCC(=O)O)NC(=O)[C@@H]2CCCCNC(=O)CC[C@H](NC(=O)[C@H](CC(=O)O)NC(=O)[C@H](CC(C)C)NC(=O)[C@H](Cc3ccc(O)cc3)NC(=O)[C@H](CCCCN)NC(=O)[C@H](CO)NC(=O)[C@H](Cc3ccc(O)cc3)NC(=O)[C@H](CC(=O)O)NC(=O)[C@H](CO)NC(=O)[C@@H](NC(=O)[C@H](Cc3ccccc3)NC(=O)[C@@H](NC(=O)CNC(=O)[C@H](CCC(N)=O)NC(=O)C(C)(C)NC(=O)[C@@H](N)Cc3c[nH]cn3)[C@@H](C)O)[C@@H](C)O)C(=O)N[C@@H](CCC(N)=O)C(=O)N[C@@H](C)C(=O)N[C@@H](C)C(=O)N2)[C@@H](C)CC)C(=O)N[C@@H](Cc2c[nH]c3ccccc23)C(=O)N[C@@H](CC(C)C)C(=O)N[C@@H](CC(C)C)C(=O)N[C@@H](CCC(N)=O)C(=O)N[C@H](C(N)=O)[C@@H](C)O)[C@@H](O)[C@H](O)[C@H]1O` [EU-A992], the “db/db mice - Mean Blood Glucose” value in the data set on db/db mice (250 nmole/kg s.c., 0 hr) is on record as 405 mg/dL; in the data set with db/db mice (250 nmole/kg s.c., 10 hr) it was 104 mg/dL; in the data set on db/db mice (250 nmole/kg s.c., 24 hr), 112 mg/dL; in the data set with db/db mice (250 nmole/kg s.c., 48 hr) it was 130 mg/dL.
With `CCCCCCCCCCCCCCO[C@@H]1O[C@H](C(=O)NCCCC[C@H](NC(=O)[C@@H](NC(=O)[C@H](Cc2ccccc2)NC(=O)[C@H](CCC(=O)O)NC(=O)[C@@H]2CCCCNC(=O)CC[C@H](NC(=O)[C@H](CC(=O)O)NC(=O)[C@H](CC(C)C)NC(=O)[C@H](Cc3ccc(O)cc3)NC(=O)[C@H](CCCCN)NC(=O)[C@H](CO)NC(=O)[C@H](Cc3ccc(O)cc3)NC(=O)[C@H](CC(=O)O)NC(=O)[C@H](CO)NC(=O)[C@@H](NC(=O)[C@H](Cc3ccccc3)NC(=O)[C@@H](NC(=O)CNC(=O)[C@H](CCC(N)=O)NC(=O)C(C)(C)NC(=O)[C@@H](N)Cc3c[nH]cn3)[C@@H](C)O)[C@@H](C)O)C(=O)N[C@@H](CCC(N)=O)C(=O)N[C@@H](C)C(=O)N[C@@H](C)C(=O)N2)[C@@H](C)CC)C(=O)N[C@@H](Cc2c[nH]c3ccccc23)C(=O)N[C@@H](CC(C)C)C(=O)N[C@@H](CC(C)C)C(=O)N[C@@H](CCC(N)=O)C(=O)N[C@H](C(N)=O)[C@@H](C)O)[C@@H](O)[C@H](O)[C@H]1O` [EU-A994, His1-Aib2-Gln3-Gly4-Thr5-Phe6-Thr7-Ser8-Asp9-Tyr10-Ser11-Lys12-Tyr13-Leu14-Asp15-Glu*16-Gln17-Ala18-Ala19-Lys*20-Glu21-Phe22-Ile23-Lys(N-omega(1-tetradecylbeta-D-glucuronyl))24-Trp25-Leu26-Leu27-Gln28-Thr29-NH2], the “db/db mice - Mean Blood Glucose” value in the data set with db/db mice (300 nmole/kg s.c., 0 hr) worked out at 554 mg/dL; with db/db mice (300 nmole/kg s.c., 10 hr), 242 mg/dL; with db/db mice (300 nmole/kg s.c., 24 hr), 209 mg/dL; in the data set on db/db mice (300 nmole/kg s.c., 48 hr), 385 mg/dL. Moreover, the “body weight changes against vehicle” value in the data set on db/db mice (setting [2]) is recorded as “Significant body weight changes”.
`CCCCCCCCCCCCCCCCCCO[C@@H]1O[C@H](CO[C@H]2O[C@H](C(=O)NCCCC[C@H](NC(=O)[C@@H](NC(=O)[C@H](Cc3ccccc3)NC(=O)[C@H](CCC(=O)O)NC(=O)[C@@H]3CCCCNC(=O)CC[C@H](NC(=O)[C@H](CC(=O)O)NC(=O)[C@H](CC(C)C)NC(=O)[C@H](Cc4ccc(O)cc4)NC(=O)[C@H](CCCCN)NC(=O)[C@H](CO)NC(=O)[C@H](Cc4ccc(O)cc4)NC(=O)[C@H](CC(=O)O)NC(=O)[C@H](CO)NC(=O)[C@@H](NC(=O)[C@H](Cc4ccccc4)NC(=O)[C@@H](NC(=O)CNC(=O)[C@H](CCC(N)=O)NC(=O)C(C)(C)NC(=O)[C@@H](N)Cc4c[nH]cn4)[C@@H](C)O)[C@@H](C)O)C(=O)N[C@@H](CCC(N)=O)C(=O)N[C@@H](C)C(=O)N[C@@H](C)C(=O)N3)[C@@H](C)CC)C(=O)N[C@@H](Cc3c[nH]c4ccccc34)C(=O)N[C@@H](CC(C)C)C(=O)N[C@@H](CC(C)C)C(=O)N[C@@H](CCC(N)=O)C(=O)N[C@H](C(N)=O)[C@@H](C)O)[C@H](O)[C@H](O)[C@H]2O)[C@@H](O)[C@H](O)[C@H]1O` [EU-A1026, His1-Aib2-Gln3-Gly4-Thr5-Phe6-Thr7-Ser8-Asp9-Tyr10-Ser11-Lys12-Tyr13-Leu14-Asp15-Glu*16-Gln17 Ala18-Ala19-Lys*20-Glu21-Phe22-Ile23-Lys (N-omega (1-octadecyl beta-D-melibiouronyl)) 24-Trp25-Leu26-Leu27-Gln28-Thr29-NH2]: the “db/db mice - Mean Blood Glucose” value in the data set on db/db mice (300 nmole/kg s.c., 0 hr) stood at 531 mg/dL; with db/db mice (300 nmole/kg s.c., 10 hr), 399 mg/dL; with db/db mice (300 nmole/kg s.c., 24 hr), 438 mg/dL; with db/db mice (300 nmole/kg s.c., 48 hr), 505 mg/dL. Moreover, the “body weight changes against vehicle” value with db/db mice (setting [2]) was “Significant body weight changes”; in the data set with db/db mice (low dose (100 nmoles/kg) s.c., Days 3 and 4), “Significant body weight changes”. Besides, the “glucose levels versus liraglutide” value with db/db mice (low dose (100 nmoles/kg) s.c., 10 hours) was “significantly different from liraglutide”.
Turning to `CCCCCCCCCCO[C@@H]1O[C@H](C(=O)NCCCC[C@H](NC(=O)[C@@H](NC(=O)[C@H](Cc2ccccc2)NC(=O)[C@H](CCC(=O)O)NC(=O)[C@@H]2CCCCNC(=O)CC[C@H](NC(=O)[C@H](CC(=O)O)NC(=O)[C@H](CC(C)C)NC(=O)[C@H](Cc3ccc(O)cc3)NC(=O)[C@H](CCCCN)NC(=O)[C@H](CO)NC(=O)[C@H](Cc3ccc(O)cc3)NC(=O)[C@H](CC(=O)O)NC(=O)[C@H](CO)NC(=O)[C@@H](NC(=O)[C@H](Cc3ccccc3)NC(=O)[C@@H](NC(=O)CNC(=O)[C@H](CCC(N)=O)NC(=O)C(C)(C)NC(=O)[C@@H](N)Cc3c[nH]cn3)[C@@H](C)O)[C@@H](C)O)C(=O)N[C@@H](CCC(N)=O)C(=O)N[C@@H](C)C(=O)N[C@@H](C)C(=O)N2)[C@@H](C)CC)C(=O)N[C@@H](Cc2c[nH]c3ccccc23)C(=O)N[C@@H](CC(C)C)C(=O)N[C@@H](CC(C)C)C(=O)N[C@@H](CCC(N)=O)C(=O)N[C@H](C(N)=O)[C@@H](C)O)[C@@H](O)[C@H](O)[C@H]1O` [EU-A1167], the “db/db mice - Mean Blood Glucose” value was determined as 379 mg/dL with db/db mice (250 nmole/kg s.c., 0 hr); 171 mg/dL with db/db mice (250 nmole/kg s.c., 10 hr); 117 mg/dL in the data set on db/db mice (250 nmole/kg s.c., 24 hr); 113 mg/dL in the data set on db/db mice (250 nmole/kg s.c., 48 hr).
For `CCCCCCCCCCCO[C@@H]1O[C@H](C(=O)NCCCC[C@H](NC(=O)[C@@H](NC(=O)[C@H](Cc2ccccc2)NC(=O)[C@H](CCC(=O)O)NC(=O)[C@@H]2CCCCNC(=O)CC[C@H](NC(=O)[C@H](CC(=O)O)NC(=O)[C@H](CC(C)C)NC(=O)[C@H](Cc3ccc(O)cc3)NC(=O)[C@H](CCCCN)NC(=O)[C@H](CO)NC(=O)[C@H](Cc3ccc(O)cc3)NC(=O)[C@H](CC(=O)O)NC(=O)[C@H](CO)NC(=O)[C@@H](NC(=O)[C@H](Cc3ccccc3)NC(=O)[C@@H](NC(=O)CNC(=O)[C@H](CCC(N)=O)NC(=O)C(C)(C)NC(=O)[C@@H](N)Cc3c[nH]cn3)[C@@H](C)O)[C@@H](C)O)C(=O)N[C@@H](CCC(N)=O)C(=O)N[C@@H](C)C(=O)N[C@@H](C)C(=O)N2)[C@@H](C)CC)C(=O)N[C@@H](Cc2c[nH]c3ccccc23)C(=O)N[C@@H](CC(C)C)C(=O)N[C@@H](CC(C)C)C(=O)N[C@@H](CCC(N)=O)C(=O)N[C@H](C(N)=O)[C@@H](C)O)[C@@H](O)[C@H](O)[C@H]1O` [EU-A1168], the “db/db mice - Mean Blood Glucose” value in the data set with db/db mice (250 nmole/kg s.c., 0 hr) came out at 380 mg/dL; in the data set on db/db mice (250 nmole/kg s.c., 10 hr), 133 mg/dL; in the data set with db/db mice (250 nmole/kg s.c., 24 hr), 169 mg/dL; with db/db mice (250 nmole/kg s.c., 48 hr), 164 mg/dL.
Take `CCCCCCCCO[C@@H]1O[C@H](CO)[C@@H](O[C@H]2O[C@H](CO)[C@@H](O)[C@H](O)[C@H]2O)[C@H](O)[C@H]1O` [Octyl maltoside]: the CMC in data set [1] was 19.5 mM.
Regarding Sucrose dodecanoate, the CMC in data set [1] is on record as 0.3 mM.
